In brackets after ≈: the same amount, converted by molar mass.

The term solubility (kinetic) denotes solubility judged after dilution from a stock solution rather than from solid.

For the data set the following is noted: buffer; pH 7.4; 200.0 µM.
On to `CC(C)c1ccc(C(O)c2nc3ccccc3n2C)cc1` (configuration not stated), for which the solubility (kinetic) turned out to be 0.0103 mg/mL (≈ 36.7 µM). Compound `O=C1NC(=S)N/C1=C\C=C\c1ccccc1` showed a kinetic solubility of 0.0017 mg/mL (≈ 7.38 µM).

Regarding `CCCCOc1ccc(Cc2c(O)nc(SC)[nH]c2=O)cc1`, the kinetic solubility amounted to 0.02 mg/mL (≈ 62.4 µM). `Cc1ccc(S(=O)(=O)Nc2cccnc2)c(C)c1C`: the solubility (kinetic) was found to be 0.0091 mg/mL (≈ 32.9 µM). In the case of `CCOC(=O)c1ccc(NC(=O)c2cc(=O)[nH]c3ccccc23)cc1`, the kinetic solubility was under 0.0004 mg/mL.

Regarding `O=C(CCS(=O)(=O)c1ccccc1)N1CCOCC1`, the solubility (kinetic) is over 0.0425 mg/mL. `COc1cccc(CC(=O)OCC(=O)NCc2ccc3c(c2)OCO3)c1` displayed a kinetic solubility of over 0.0536 mg/mL. On to `COc1cccc(NC(=O)c2cc3ccccc3o/c2=N\O)c1`, for which the solubility (kinetic) is 0.0222 mg/mL (≈ 71.5 µM).

Take `COc1ccc(C(=O)Nc2cc(-c3ccc(C)cc3)no2)cc1`: the solubility (kinetic) was under 0.0003 mg/mL. In turn, `COc1ccc(NC(=O)c2csc(C)c2)cc1OC` yielded a kinetic solubility of over 0.0416 mg/mL. As for `O=C(Cc1ccccc1)NCC(=O)N1CCC1`, the figure is over 0.0348 mg/mL; as for `CN1CCN(C(=O)c2cccn(Cc3cccc(Cl)c3)c2=O)CC1`, over 0.0519 mg/mL; as for `CCc1ccccc1NC(=O)c1ccc(S(=O)(=O)N2CCCC2)cc1`, 0.0122 mg/mL (≈ 34 µM). In the case of `Cn1c2ccc(F)cc2c2ncn(CC3CCCO3)c(=O)c21` (configuration not stated), the kinetic solubility came to 0.004 mg/mL (≈ 13.3 µM). The compound `CCc1cccc(NC(=O)CC2SC(N3CCCC3)=NC2=O)c1` (configuration not stated) displayed a solubility (kinetic) of over 0.0497 mg/mL. Regarding `COc1cccc2c(Cl)c(CC=C(Cl)Cl)c(C)nc12`, the solubility (kinetic) was under 0.0007 mg/mL. As for `Cc1cccc(NS(=O)(=O)c2csc(C(N)=O)c2)c1`, the figure is over 0.0445 mg/mL.

With `Cc1nc2cc(Cl)ccc2c(=O)n1Cc1ccncc1`, the solubility (kinetic) was over 0.0429 mg/mL. The compound `COc1ccc(S(=O)(=O)Nc2cc(C)on2)cc1` registered a solubility (kinetic) of 0.0361 mg/mL (≈ 135 µM). Compound `CC(C)c1cc(=O)[nH]c(N2CCN(Cc3ccc4c(c3)OCO4)CC2)n1` came in with a kinetic solubility of 0.0499 mg/mL (≈ 140 µM). Turning to `COc1ccc(N2C(=O)Cc3c2nc(N)c(C#N)c3N)cc1`, the kinetic solubility was 0.013 mg/mL (≈ 44 µM).

For `CCOc1ccccc1NC(=O)C1CCN(S(C)(=O)=O)CC1`, the kinetic solubility was over 0.049 mg/mL. The compound `CCOc1ccc(C(=O)N2CCc3ccccc32)cc1OCC` displayed a solubility (kinetic) of 0.0405 mg/mL (≈ 130 µM). Compound `S=C(Nc1cccnc1)N1CCc2ccccc21` showed a kinetic solubility of over 0.0383 mg/mL. `COc1nc(N(C)C)nc(N(C)c2cc(Cl)cc(Cl)c2)n1` gave a kinetic solubility of 0.0004 mg/mL (≈ 1.22 µM). The same measure for `O=C(Nc1ncccc1O)c1c(O)c2ccccc2[nH]c1=O`: 0.0111 mg/mL (≈ 37.3 µM). The compound `CC(=O)c1c(O)c2ccccc2n(C2CCCCC2)c1=O` showed a kinetic solubility of 0.0014 mg/mL (≈ 4.91 µM). Turning to `Cc1ccc(NC(=O)CCOc2ccccc2)cc1`, the solubility (kinetic) worked out at 0.0117 mg/mL (≈ 45.8 µM). The compound `CCOc1ccccc1N1CCN(Cc2cnc(-c3ccccc3)[nH]2)CC1` displayed a kinetic solubility of over 0.0544 mg/mL. As for `CC1CC(=O)Nc2ccccc2N1C(=O)COc1ccc2ccccc2c1` (configuration not stated), the figure is 0.0088 mg/mL (≈ 24.4 µM). Compound `C/C(=C/c1ccccc1)C(=O)N1CCN(c2ccc(F)cc2)CC1` had a kinetic solubility of 0.0361 mg/mL (≈ 111 µM). With `O=C(NCCN1CCOCC1)c1cc(-c2ccc(F)cc2)nc2ccccc12`, the solubility (kinetic) came to 0.0238 mg/mL (≈ 62.7 µM). `CC(C)(C)N1CSC(=S)N(Cc2ccccc2)C1`: the kinetic solubility stood at 0.0164 mg/mL (≈ 58.5 µM).

Take `Cc1ccc(NC(=O)CCCNC(=O)c2ccc(Cl)cc2)nc1`: the solubility (kinetic) was found to be 0.0041 mg/mL (≈ 12.4 µM). As for `Cc1cccc(NC(=O)CCn2c(=O)oc3ccccc32)c1`, the figure is 0.0382 mg/mL (≈ 129 µM); as for `Cc1ccc(NC(=O)CNC2CCCCC2)cc1Cl`, 0.0211 mg/mL (≈ 75.1 µM).

Take `C#CCn1cc(/C=C2\NC(=O)NC2=O)c2ccccc21`: the solubility (kinetic) was determined as 0.0012 mg/mL (≈ 4.52 µM). Regarding `NC(=O)C1CCCN(S(=O)(=O)c2ccc3ccccc3c2)C1` (configuration not stated), the solubility (kinetic) amounted to 0.0131 mg/mL (≈ 41.1 µM).

In turn, `CC(C)C(NC(=O)c1ccc([N+](=O)[O-])cc1Cl)C(=O)N1CCCC1` (configuration not stated) yielded a kinetic solubility of over 0.0531 mg/mL.

The compound `COc1ccc2[nH]c(C(=O)NCc3ccccc3)c(C)c2c1.Cl` had a solubility (kinetic) of 0.0027 mg/mL. Compound `COc1ccc(NC(=O)C2CCCNC2=O)cc1` (configuration not stated) displayed a solubility (kinetic) of over 0.0372 mg/mL.

With `Nc1nc(Cl)cc(N2CCCC2)n1`, the kinetic solubility was over 0.0298 mg/mL. Consider `CC(=O)c1cn(C(=O)c2ccc(Cl)cc2)c2ccccc12`, for which the kinetic solubility turned out to be 0.0036 mg/mL (≈ 12.1 µM). `O=C(COC(=O)c1ccc2ccccc2n1)Nc1ccccc1Br` yielded a solubility (kinetic) of 0.0124 mg/mL (≈ 32.2 µM). As for `CC(OC(=O)CCCC(=O)Nc1ccc(F)cc1)C(=O)c1ccccc1` (configuration not stated), the figure is 0.0447 mg/mL (≈ 125 µM); as for `COc1ccccc1NC(=O)C(C)N(C)CCOc1ccccc1` (configuration not stated), 0.0231 mg/mL (≈ 70.3 µM); as for `CCN(CC)CCC(O)(c1ccccc1)C1CCCCC1` (configuration not stated), 0.0243 mg/mL (≈ 83.9 µM).

The compound `O=C(CCc1c[nH]c2ccccc12)NCCc1ccc2c(c1)OCCO2` displayed a kinetic solubility of 0.0444 mg/mL (≈ 127 µM).

`CCCCN1C(=O)C(=O)N(CC(=O)Nc2ccccc2C(=O)OCC)C1=O`: the solubility (kinetic) was determined as 0.0551 mg/mL (≈ 147 µM). As to `Cn1c(SCC(=O)Nc2nccs2)nnc1C1CC1`, the kinetic solubility was over 0.0443 mg/mL. `O=S(=O)(c1ccc(Cl)nc1)N1CCC(Cc2ccccc2)CC1` showed a solubility (kinetic) of 0.0025 mg/mL (≈ 7.13 µM). In turn, `CC1CC(C)CN(S(=O)(=O)c2ccc(C(C)(C)C)cc2)C1` (configuration not stated) had a solubility (kinetic) of under 0.0007 mg/mL.
